Measurements published in ChEMBL document CHEMBL4049403, “Oligo-aspartic acid conjugates with benzo[c][2,6]naphthyridine-8-carboxylic acid scaffold as picomolar inhibitors of CK2” (Bioorg Med Chem, 2017).
Where a SMILES comes first, the peptide text is derived from it. The star is where a group is joined. X1 = O=C(O)c1ccc2c(c1)nc(OCCCCCCCCC(=O)*)c1ccncc12

Legend:
[1] = molecular target: Dual specificity mitogen-activated protein kinase kinase 2 (Homo sapiens) (UniProt P36507); assay: Inhibition of human MKK2 assessed as residual activity at 1 uM in presence of [33P]ATP by filter binding assay relative to control
Sequence of Dual specificity mitogen-activated protein kinase kinase 2 (Homo sapiens) (P36507 whole entry): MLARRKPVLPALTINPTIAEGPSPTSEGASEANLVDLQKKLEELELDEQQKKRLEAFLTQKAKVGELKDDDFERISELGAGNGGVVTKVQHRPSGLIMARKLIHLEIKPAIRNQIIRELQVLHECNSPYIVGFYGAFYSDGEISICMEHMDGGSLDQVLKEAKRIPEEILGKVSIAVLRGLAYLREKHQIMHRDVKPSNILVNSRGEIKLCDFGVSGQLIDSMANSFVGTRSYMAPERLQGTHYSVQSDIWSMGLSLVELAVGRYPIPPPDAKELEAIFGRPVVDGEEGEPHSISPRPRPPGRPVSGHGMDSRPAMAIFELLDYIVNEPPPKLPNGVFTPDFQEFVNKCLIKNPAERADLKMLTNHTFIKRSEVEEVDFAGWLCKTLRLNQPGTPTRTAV

[2] = molecular target: Mitogen-activated protein kinase 8 (Homo sapiens) (UniProt P45983); assay: Inhibition of human JNK1 assessed as residual activity at 1 uM in presence of [33P]ATP by filter binding assay relative to control
Sequence of Mitogen-activated protein kinase 8 (Homo sapiens) (P45983 whole entry): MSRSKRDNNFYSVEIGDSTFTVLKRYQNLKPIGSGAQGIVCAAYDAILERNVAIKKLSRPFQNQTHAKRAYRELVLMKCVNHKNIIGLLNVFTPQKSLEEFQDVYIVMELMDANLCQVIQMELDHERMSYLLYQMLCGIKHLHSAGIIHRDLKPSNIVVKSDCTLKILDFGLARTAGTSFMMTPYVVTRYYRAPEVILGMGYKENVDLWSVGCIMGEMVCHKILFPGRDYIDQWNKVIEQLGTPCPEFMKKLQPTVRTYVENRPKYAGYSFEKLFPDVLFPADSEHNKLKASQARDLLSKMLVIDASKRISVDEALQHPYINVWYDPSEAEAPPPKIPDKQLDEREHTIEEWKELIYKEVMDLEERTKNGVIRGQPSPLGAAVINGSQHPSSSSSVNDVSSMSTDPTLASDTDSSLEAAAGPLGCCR

[3] = molecular target: Dual specificity tyrosine-phosphorylation-regulated kinase 3 (Homo sapiens) (UniProt O43781); assay: Inhibition of human DYRK3 assessed as residual activity at 1 uM in presence of 33P-ATP by filter-binding assay relative to control
[4] = molecular target: Homeodomain-interacting protein kinase 3 (Homo sapiens) (UniProt Q9H422); assay: Inhibition of human HIPK3 assessed as residual activity at 1 uM in presence of 33P-ATP by filter-binding assay relative to control
Sequence of Homeodomain-interacting protein kinase 3 (Homo sapiens) (Q9H422 whole entry, looked up): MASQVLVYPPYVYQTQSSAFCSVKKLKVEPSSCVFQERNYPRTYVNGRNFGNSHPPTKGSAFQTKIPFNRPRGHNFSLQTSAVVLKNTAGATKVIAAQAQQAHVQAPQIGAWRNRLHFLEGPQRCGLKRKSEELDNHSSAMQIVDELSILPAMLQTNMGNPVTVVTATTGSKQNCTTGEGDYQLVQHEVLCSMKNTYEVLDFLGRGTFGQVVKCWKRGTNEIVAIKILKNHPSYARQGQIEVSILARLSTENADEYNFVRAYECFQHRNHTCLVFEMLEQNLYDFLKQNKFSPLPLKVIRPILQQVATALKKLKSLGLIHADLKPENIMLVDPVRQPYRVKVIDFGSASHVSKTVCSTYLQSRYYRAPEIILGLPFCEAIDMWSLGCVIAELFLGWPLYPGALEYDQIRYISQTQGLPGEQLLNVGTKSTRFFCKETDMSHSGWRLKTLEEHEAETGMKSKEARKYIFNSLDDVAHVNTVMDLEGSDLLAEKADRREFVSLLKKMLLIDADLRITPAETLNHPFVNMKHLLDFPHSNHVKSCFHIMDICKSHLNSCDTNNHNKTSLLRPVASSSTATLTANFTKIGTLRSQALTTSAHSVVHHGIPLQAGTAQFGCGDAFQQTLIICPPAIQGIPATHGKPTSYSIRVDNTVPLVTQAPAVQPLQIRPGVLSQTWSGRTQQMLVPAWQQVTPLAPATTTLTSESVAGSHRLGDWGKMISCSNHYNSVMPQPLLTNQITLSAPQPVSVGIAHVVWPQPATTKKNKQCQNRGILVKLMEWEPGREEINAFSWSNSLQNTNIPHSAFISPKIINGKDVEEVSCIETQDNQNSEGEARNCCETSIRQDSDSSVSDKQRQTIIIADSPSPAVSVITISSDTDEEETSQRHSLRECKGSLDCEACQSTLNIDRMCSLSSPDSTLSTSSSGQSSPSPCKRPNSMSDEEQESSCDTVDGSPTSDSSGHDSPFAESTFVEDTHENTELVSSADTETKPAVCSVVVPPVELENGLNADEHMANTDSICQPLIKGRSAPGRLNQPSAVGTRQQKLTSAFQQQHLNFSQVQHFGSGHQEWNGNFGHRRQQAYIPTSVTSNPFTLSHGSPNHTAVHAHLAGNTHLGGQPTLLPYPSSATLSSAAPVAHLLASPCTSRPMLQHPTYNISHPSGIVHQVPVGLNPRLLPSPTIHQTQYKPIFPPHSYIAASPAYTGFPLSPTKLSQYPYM

[5] = molecular target: Dual specificity protein kinase CLK2 (Homo sapiens) (UniProt P49760); assay: Inhibition of human CLK2 assessed as residual activity at 1 uM in presence of 33P-ATP by filter-binding assay relative to control
[6] = molecular target: Tyrosine-protein kinase Lck (Homo sapiens) (UniProt P06239); assay: Inhibition of human Lck assessed as residual activity at 1 uM in presence of 33P-ATP by filter-binding assay relative to control
Sequence of Tyrosine-protein kinase Lck (Homo sapiens) (P06239 2-509 limits assumed): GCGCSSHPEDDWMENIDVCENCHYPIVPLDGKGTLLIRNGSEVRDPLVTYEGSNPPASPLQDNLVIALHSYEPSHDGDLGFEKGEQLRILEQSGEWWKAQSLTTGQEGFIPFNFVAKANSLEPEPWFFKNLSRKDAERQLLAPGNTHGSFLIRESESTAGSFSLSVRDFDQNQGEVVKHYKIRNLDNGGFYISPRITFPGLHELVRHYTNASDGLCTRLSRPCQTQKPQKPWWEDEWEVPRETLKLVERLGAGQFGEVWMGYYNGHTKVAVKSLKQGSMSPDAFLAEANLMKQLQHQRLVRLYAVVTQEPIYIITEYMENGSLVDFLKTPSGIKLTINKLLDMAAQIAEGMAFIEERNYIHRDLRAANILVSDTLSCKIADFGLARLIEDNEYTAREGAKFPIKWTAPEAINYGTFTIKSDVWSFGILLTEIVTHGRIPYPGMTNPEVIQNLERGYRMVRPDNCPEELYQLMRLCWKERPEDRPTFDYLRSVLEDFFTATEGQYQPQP

[7] = molecular target: Eukaryotic translation initiation factor 2-alpha kinase 3 (Homo sapiens) (UniProt Q9NZJ5); assay: Inhibition of human EIF2AK3 assessed as residual activity at 1 uM in presence of 33P-ATP by filter-binding assay relative to control
[8] = molecular target: Ribosomal protein S6 kinase alpha-1 (Homo sapiens) (UniProt Q15418); assay: Inhibition of human RSK1 assessed as residual activity at 1 uM in presence of 33P-ATP by filter-binding assay relative to control
[9] = molecular target: Ephrin type-B receptor 3 (Homo sapiens) (UniProt P54753); assay: Inhibition of human EPHB3 assessed as residual activity at 1 uM in presence of 33P-ATP by filter-binding assay relative to control
[10] = molecular target: Serine/threonine-protein kinase D1 (Homo sapiens) (UniProt Q15139); assay: Inhibition of human PKD1 assessed as residual activity at 1 uM in presence of [33P]ATP by filter binding assay relative to control
Sequence of Serine/threonine-protein kinase D1 (Homo sapiens) (Q15139 whole entry): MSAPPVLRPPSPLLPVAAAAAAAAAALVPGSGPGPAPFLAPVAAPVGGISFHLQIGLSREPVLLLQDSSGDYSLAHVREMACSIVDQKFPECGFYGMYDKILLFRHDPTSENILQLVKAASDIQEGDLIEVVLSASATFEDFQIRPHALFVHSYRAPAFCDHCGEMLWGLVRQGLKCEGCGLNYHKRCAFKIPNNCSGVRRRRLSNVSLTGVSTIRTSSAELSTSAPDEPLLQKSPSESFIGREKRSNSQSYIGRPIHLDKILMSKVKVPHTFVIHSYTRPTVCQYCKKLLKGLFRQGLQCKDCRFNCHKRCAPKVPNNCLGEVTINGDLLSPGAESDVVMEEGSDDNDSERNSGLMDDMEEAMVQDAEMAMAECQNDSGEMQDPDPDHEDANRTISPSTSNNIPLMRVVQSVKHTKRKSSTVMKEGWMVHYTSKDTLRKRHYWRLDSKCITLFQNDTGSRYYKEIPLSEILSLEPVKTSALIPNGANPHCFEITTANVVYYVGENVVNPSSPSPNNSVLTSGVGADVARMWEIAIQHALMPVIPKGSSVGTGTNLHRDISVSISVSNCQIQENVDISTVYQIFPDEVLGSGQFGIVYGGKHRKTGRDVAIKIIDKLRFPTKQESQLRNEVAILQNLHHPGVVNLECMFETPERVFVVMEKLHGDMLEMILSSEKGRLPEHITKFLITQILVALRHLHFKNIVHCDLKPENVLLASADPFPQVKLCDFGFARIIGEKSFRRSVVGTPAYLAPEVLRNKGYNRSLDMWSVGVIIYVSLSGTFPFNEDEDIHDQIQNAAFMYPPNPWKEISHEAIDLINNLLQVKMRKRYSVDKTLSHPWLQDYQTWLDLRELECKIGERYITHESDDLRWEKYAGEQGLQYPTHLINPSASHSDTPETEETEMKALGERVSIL

[11] = molecular target: Serine/threonine-protein kinase pim-2 (Homo sapiens) (UniProt Q9P1W9); assay: Inhibition of human PIM2 assessed as residual activity at 1 uM in presence of [33P]ATP by filter binding assay relative to control
Sequence of Serine/threonine-protein kinase pim-2 (Homo sapiens) (Q9P1W9 whole entry, looked up): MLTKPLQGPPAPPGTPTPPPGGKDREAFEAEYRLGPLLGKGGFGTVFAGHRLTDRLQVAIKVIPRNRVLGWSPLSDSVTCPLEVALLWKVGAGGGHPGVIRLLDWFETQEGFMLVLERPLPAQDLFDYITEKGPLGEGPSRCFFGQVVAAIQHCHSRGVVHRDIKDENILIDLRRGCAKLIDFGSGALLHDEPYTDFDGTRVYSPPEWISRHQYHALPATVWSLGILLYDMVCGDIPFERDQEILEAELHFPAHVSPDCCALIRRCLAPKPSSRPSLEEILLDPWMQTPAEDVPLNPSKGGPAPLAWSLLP

[12] = molecular target: MAP kinase-activated protein kinase 3 (Homo sapiens) (UniProt Q16644); assay: Inhibition of human MAPKAP-K3 assessed as residual activity at 1 uM in presence of [33P]ATP by filter binding assay relative to control
[13] = molecular target: Serine/threonine-protein kinase STK11 (Homo sapiens) (UniProt Q15831); assay: Inhibition of human LKB1 assessed as residual activity at 1 uM in presence of [33P]ATP by filter binding assay relative to control
[14] = molecular target: Insulin receptor (Homo sapiens) (UniProt P06213); assay: Inhibition of human IR assessed as residual activity at 1 uM in presence of [33P]ATP by filter binding assay relative to control
[15] = molecular target: SRSF protein kinase 1 (Homo sapiens) (UniProt Q96SB4); assay: Inhibition of human SRPK1 assessed as residual activity at 1 uM in presence of [33P]ATP by filter binding assay relative to control
[16] = molecular target: Calcium/calmodulin-dependent protein kinase type 1 (Homo sapiens) (UniProt Q14012); assay: Inhibition of human CAMK1 assessed as residual activity at 1 uM in presence of [33P]ATP by filter binding assay relative to control
[17] = molecular target: Serine/threonine-protein kinase ULK1 (Homo sapiens) (UniProt O75385); assay: Inhibition of human ULK1 assessed as residual activity at 1 uM in presence of [33P]ATP by filter binding assay relative to control
[18] = molecular target: Rho-associated protein kinase 2 (Homo sapiens) (UniProt O75116); assay: Inhibition of human ROCK2 assessed as residual activity at 1 uM in presence of [33P]ATP by filter binding assay relative to control
[19] = molecular target: MAP/microtubule affinity-regulating kinase 4 (Homo sapiens) (UniProt Q96L34); assay: Inhibition of human MARK4 assessed as residual activity at 1 uM in presence of [33P]ATP by filter binding assay relative to control
Sequence of MAP/microtubule affinity-regulating kinase 4 (Homo sapiens) (Q96L34 whole entry): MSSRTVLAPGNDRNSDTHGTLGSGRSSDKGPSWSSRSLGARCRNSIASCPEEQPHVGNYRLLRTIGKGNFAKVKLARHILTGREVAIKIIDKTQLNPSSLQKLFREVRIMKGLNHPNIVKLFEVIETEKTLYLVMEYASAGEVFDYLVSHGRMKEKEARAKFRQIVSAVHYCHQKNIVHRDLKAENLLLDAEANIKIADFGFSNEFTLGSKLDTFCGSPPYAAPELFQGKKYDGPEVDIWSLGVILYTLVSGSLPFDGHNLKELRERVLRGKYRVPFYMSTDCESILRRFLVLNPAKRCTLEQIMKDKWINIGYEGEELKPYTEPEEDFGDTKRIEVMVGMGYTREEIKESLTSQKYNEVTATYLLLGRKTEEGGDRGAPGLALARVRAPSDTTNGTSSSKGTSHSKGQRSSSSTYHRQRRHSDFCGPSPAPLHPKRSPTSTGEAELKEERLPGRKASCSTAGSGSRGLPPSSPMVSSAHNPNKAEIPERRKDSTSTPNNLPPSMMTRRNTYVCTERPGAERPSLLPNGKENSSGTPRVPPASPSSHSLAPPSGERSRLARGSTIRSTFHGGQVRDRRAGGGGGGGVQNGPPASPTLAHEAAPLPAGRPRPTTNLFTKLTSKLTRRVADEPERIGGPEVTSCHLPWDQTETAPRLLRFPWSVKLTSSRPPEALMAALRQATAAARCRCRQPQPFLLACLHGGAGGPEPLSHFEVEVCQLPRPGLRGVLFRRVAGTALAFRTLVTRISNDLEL

[20] = molecular target: Serine/threonine-protein kinase Chk1 (Homo sapiens) (UniProt O14757); assay: Inhibition of human CHK1 assessed as residual activity at 1 uM in presence of [33P]ATP by filter binding assay relative to control
[21] = molecular target: Serine/threonine-protein kinase ULK2 (Homo sapiens) (UniProt Q8IYT8); assay: Inhibition of human ULK2 assessed as residual activity at 1 uM in presence of [33P]ATP by filter binding assay relative to control
[22] = molecular target: Protein kinase C gamma type (Homo sapiens) (UniProt P05129); assay: Inhibition of human PKCgamma assessed as residual activity at 1 uM in presence of [33P]ATP by filter binding assay relative to control
[23] = molecular target: Mitogen-activated protein kinase kinase kinase kinase 3 (Homo sapiens) (UniProt Q8IVH8); assay: Inhibition of human MAP4K3 assessed as residual activity at 1 uM in presence of [33P]ATP by filter binding assay relative to control
[24] = molecular target: Serine/threonine-protein kinase PAK 5 (Homo sapiens) (UniProt Q9P286); assay: Inhibition of human PAK5 assessed as residual activity at 1 uM in presence of [33P]ATP by filter binding assay relative to control
[25] = molecular target: Eukaryotic elongation factor 2 kinase (Homo sapiens) (UniProt O00418); assay: Inhibition of human EF2K assessed as residual activity at 1 uM in presence of [33P]ATP by filter binding assay relative to control
[26] = molecular target: Platelet-derived growth factor receptor alpha (Homo sapiens) (UniProt P16234); assay: Inhibition of human PDGFRA assessed as residual activity at 1 uM in presence of [33P]ATP by filter binding assay relative to control
[27] = molecular target: Interleukin-1 receptor-associated kinase 4 (Homo sapiens) (UniProt Q9NWZ3); assay: Inhibition of human IRAK4 assessed as residual activity at 1 uM in presence of [33P]ATP by filter binding assay relative to control
[28] = molecular target: Mitogen-activated protein kinase 3 (Homo sapiens) (UniProt P27361); assay: Inhibition of human ERK1 assessed as residual activity at 1 uM in presence of [33P]ATP by filter binding assay relative to control
[29] = molecular target: Mitogen-activated protein kinase 13 (Homo sapiens) (UniProt O15264); assay: Inhibition of human P38d MAPK assessed as residual activity at 1 uM in presence of [33P]ATP by filter binding assay relative to control
Sequence of Mitogen-activated protein kinase 13 (Homo sapiens) (O15264 whole entry): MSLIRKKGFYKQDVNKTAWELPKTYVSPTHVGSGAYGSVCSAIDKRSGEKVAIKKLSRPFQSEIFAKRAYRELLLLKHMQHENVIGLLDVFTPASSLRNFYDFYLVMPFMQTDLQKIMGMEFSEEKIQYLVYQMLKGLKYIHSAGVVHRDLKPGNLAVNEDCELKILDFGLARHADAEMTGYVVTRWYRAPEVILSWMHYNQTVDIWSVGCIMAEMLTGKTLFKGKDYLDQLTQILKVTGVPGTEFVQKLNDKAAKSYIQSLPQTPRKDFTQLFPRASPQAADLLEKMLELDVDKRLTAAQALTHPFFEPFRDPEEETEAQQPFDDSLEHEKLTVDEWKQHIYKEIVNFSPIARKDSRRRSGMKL

NCCCC[C@H](NC(=O)[C@H](CC(=O)O)NC(=O)[C@H](CC(=O)O)NC(=O)[C@H](CC(=O)O)NC(=O)[C@H](CC(=O)O)NC(=O)[C@H](CC(=O)O)NC(=O)[C@H](CC(=O)O)NC(=O)CCCCCCCCOc1nc2cc(C(=O)O)ccc2c2cnccc12)C(=O)O (X1-DDDDDDK-OH)
Activity [1]: 88%
Activity [2]: 91%
Activity [3]: 4%
Activity [4]: 8%
Activity [5]: 19%
Activity [6]: 39%
Activity [7]: 47%
Activity [8]: 50%
Activity [9]: 56%
Activity [10]: 79%
Activity [11]: 80%
Activity [12]: 82%
Activity [13]: 83%
Activity [14]: 85%
Activity [15]: 86%
Activity [16]: 89%
Activity [17]: 90%
Activity [18]: 90%
Activity [19]: 91%
Activity [20]: 91%
Activity [21]: 93%
Activity [22]: 94%
Activity [23]: 95%
Activity [24]: 97%
Activity [25]: 100%
Activity [26]: 102%
Activity [27]: 103%
Activity [28]: 106%
Activity [29]: 109%
